Assay results: patent US20230183774A1, “COLORIMETRIC ASSAY FOR HIGH THROUGHPUT, FACILE AND RAPID ANTIMICROBIAL SUSCEPTIBILITIES TESTING” (Georgia Tech Research Corporation, priority 2021, published 2023)
≈ marks a conversion by molar mass, not a printed value. Like-named read-outs stand apart in the source and are kept apart here.

Key:
Type in all cases: cell-based
[1] = test system: E. coli sample (positive blood culture); assay: ChroMIC automated colorimetric MIC assay directly from positive blood culture; conditions: for MIC: Escherichia coli
Description: In order to prepare the contrast agent, sterile human whole blood (ZenBio, Research Triangle Park, N.C.) was stored at 4° C. and used within two weeks. […] For use as contrast, whole blood was diluted in sterile cation-adjusted Mueller Hinton broth (CAMHB; BD Biosciences, San Jose, Calif.) media (10% v/v).
Relating to an example colorimetric AST directly from positive blood culture —BacT/ALERT FA PLUS positive blood cultures were 500-fold diluted in CAMHB media and dispensed in the 96-well plate antibiotic panels. […] Final antibiotic concentrations ranged from approximately 0.03125 μg/mL to approximately 64 μg/mL along each row, with final dilution of blood cultures being 1000-fold. […] Wells H1, H9, and H10 are media-only negative controls, while wells H11 and H12 are no-antibiotic positive controls. […] ChroMIC ASTs were performed and compared (blinded) against both Vitek-2-determined MICs and vs. BMD. Each blood culture was also plated to retroactively determine inoculum size used.
Negative control wells with antibiotics and media only were allocated to ensure the sterility of media and antibiotics. Positive control wells were prepared to track bacterial growth without antibiotics and these controls were used in developing real-time automated analysis. After preparation of assays, the 96-well plates were covered with sterile sealing film (VWR International, Radnor, Pa.) and incubated at 37° C. for 18 hours with imaging as described below.
Example instruments used with the example colorimetric AST are disclosed herein. Four computer-controlled cameras (Raspberry Pi HQ) were connected to an ArduCam multicamera board in a Raspberry Pi 4B computer running the latest version of Raspian operating system. Within an incubator held at approximately 37° C., 96-well microtiter plates were held in 3D-printed holders, approximately 10 cm above the camera. A low distortion wide-angle lens was used to image microtiter plates from below, with LED illumination from above. Software collected images once every 15 minutes from each active camera over an 18-hour period. Images were analyzed both visually and by computer for red, green, and blue channel pixel intensities. Automated well detection was performed with OpenCV in python based on color value and the two most significant principal color components within each well were calculated and used to determine positive versus negative bacterial growth. […] SVM-derived probabilities were used to determine growth or no growth in each well. The left—most well in each row maintaining bright red color (no growth) was taken as the MIC.
ChroMIC assays were automated to acquire one image every 15 minutes over 18 hours. […] Wells can be automatically detected based on their color and the mean RGB color values can be taken from the average color of a 40×40 pixel area around each well centroid. Principal components using RGB values as input dimensions can be calculated for the wells in each image. […] Wells H1-H10 on each image and all wells (A1-H12) from the first hour (5 images—all before growth occurs) can be used as negative control wells. […] Since PCs are calculated for each image, all positive and negative controls are rotated into the current image PC space. A grid search can be performed to find the optimal SVM discriminant (FIG. 20B), and probabilities are used to assign growth (+) or no growth (−) for each well.
FIGS. 20-23 show aspects of automated real-time ChroMIC assay of an E. coli sample. An example of acquired images at different times (0 hours, 4 hours, 6 hours, 8 hours, 10 hours, 12 hours and 18 h) is shown in FIG. 19. […] This enables labels and MIC determinations for each antibiotic at each time point.

E. coli strain Mu890 [2] = assay: Rapid colorimetric AST in spiked human whole blood / blood culture medium (colour change, near IR absorbance); conditions: 37° C.; for Susceptibility of Mu890 (colorimetric assay / near IR absorption): CLSI susceptible and resistant breakpoints, 2.55 × 10^4 CFU/mL in wells, 24 hours; for Susceptibility of Mu890 (colour change of blood): rapid colorimetric AST, CLSI breakpoint concentrations, 96-well plate, up to 24 hours incubation
Text: (§1) The antibiotics concentration and the initial concentration of bacterial cells in the wells shown in FIG. 8A are tabulated in Table 3.

E. coli strain Mu890 [3] = assay: Standard broth microdilution (BMD), turbidity; conditions: validation of near IR experiment, 6×10^6 CFU/mL per well
Description: This color change results from the growth and presence of viable bacteria. When bacteria are resistant to the given antibiotic concentration, the color change is clearly observed. […] Results were validated by comparing with the gold standard BMD (FIGS. 4A and 4B). The gold standard BDM requires 16 to 24 hours incubation of plates after isolation of pure bacteria from positive blood cultures. In this case, the BMD was done by subculturing a pure colony of Mu890 in 4 mL CAMHB for 3 hours, followed by OD-600 adjustment such that the final concentration of bacteria is 6×10^6 CFU/mL per well. The plate was incubated at 37° C. for 18 hours and the image was acquired (FIG. 4B).

[4] = test system: P. aeruginosa strain PA46; assay: Standard broth microdilution (BMD); conditions: 6×10^6 CFU/mL per well
Description: as §1
The bacterial density in the standard BMD method was 6×10^6 CFU/mL per well before incubation, while the bacterial density in the colorimetric assay before the incubation is given in Table 3.

[5] = real-time Bayesian updated MIC, 4 hour, read-out: MIC (4 hour)
[6] = real-time Bayesian updated MIC, 6 hour, read-out: MIC (6 hour)
[7] = real-time Bayesian updated MIC, 8 hour, read-out: MIC (8 hour)
[8] = real-time Bayesian updated MIC, 10 hour, read-out: MIC (10 hour)
[9] = real-time Bayesian updated MIC, 12 hour, read-out: MIC (12 hour)
[10] = real-time Bayesian updated MIC, 16 hour, read-out: MIC (16 hour)

| Compound | MIC [1, 5] | MIC [1, 6] | MIC [1, 7] | MIC [1, 8] | MIC [1, 9] | MIC [1, 10] | Susceptibility of Mu890 (colorimetric assay / near IR absorption) (E. coli strain Mu890 [2]) | Susceptibility of Mu890 (standard BMD method) (E. coli strain Mu890 [3]) | also measured |
| --- | --- | --- | --- | --- | --- | --- | --- | --- | --- |
| NCC[C@H](O)C(=O)N[C@@H]1C[C@H](N)[C@@H](O[C@H]2O[C@H](CN)[C@@H](O)[C@H](O)[C@H]2O)[C@H](O)[C@H]1O[C@H]1O[C@H](CO)[C@@H](O)[C@H](N)[C@H]1O [Amikacin, amikacin] | 1 µg/mL (≈ 1.71 µM) | 1 µg/mL (≈ 1.71 µM) | 1 µg/mL (≈ 1.71 µM) | 2 µg/mL (≈ 3.42 µM) | 2 µg/mL (≈ 3.42 µM) | 2 µg/mL (≈ 3.42 µM) |  |  |  |
| CO/N=C(\C(=O)N[C@@H]1C(=O)N2C(C(=O)[O-])=C(C[N+]3(C)CCCC3)CS[C@H]12)c1csc(N)n1 [Cefepime, cefepime] |  |  |  |  |  |  |  |  | MIC ([1]; 4 h, read-out: MIC (4 hour)): ≤ 0.0312 µg/mL; MIC ([1]; 6 h, read-out: MIC (6 hour)): ≤ 0.0312 µg/mL; MIC ([1]; 8 h, read-out: MIC (8 hour)): ≤ 0.0312 µg/mL; MIC ([1]; 10 h, read-out: MIC (10 hour)): ≤ 0.0312 µg/mL; MIC ([1]; 12 h, read-out: MIC (12 hour)): ≤ 0.0312 µg/mL; MIC ([1]; 16 h, read-out: MIC (16 hour)): ≤ 0.0312 µg/mL |
| CC(C)(O/N=C(\C(=O)N[C@@H]1C(=O)N2C(C(=O)[O-])=C(C[n+]3ccccc3)CS[C@H]12)c1csc(N)n1)C(=O)O [Ceftazidime, ceftazidime] | 0.25 µg/mL (≈ 0.457 µM) | 0.25 µg/mL (≈ 0.457 µM) | 0.125 µg/mL (≈ 0.229 µM) | 0.125 µg/mL (≈ 0.229 µM) | 0.125 µg/mL (≈ 0.229 µM) | 0.125 µg/mL (≈ 0.229 µM) | susceptible | susceptible | Susceptibility of Mu890 (colour change of blood) (E. coli strain Mu890 [2]): sensitive |
| C[C@H]1COc2c(N3CCN(C)CC3)c(F)cc3c(=O)c(C(=O)O)cn1c23 [Levofloxacin, levofloxacin] | ≤ 0.0312 µg/mL | ≤ 0.0312 µg/mL | ≤ 0.0312 µg/mL | ≤ 0.0312 µg/mL | ≤ 0.0312 µg/mL | ≤ 0.0312 µg/mL |  |  |  |
| C[C@@H](O)[C@H]1C(=O)N2C(C(=O)O)=C(S[C@@H]3CN[C@H](C(=O)N(C)C)C3)[C@H](C)[C@H]12 [Meropenem, meropenem] | 0.0625 µg/mL (≈ 0.163 µM) | ≤ 0.0312 µg/mL | ≤ 0.0312 µg/mL | ≤ 0.0312 µg/mL | ≤ 0.0312 µg/mL | ≤ 0.0312 µg/mL | susceptible | susceptible |  |
| NC[C@H]1O[C@H](O[C@H]2[C@H](O)[C@@H](O[C@H]3O[C@H](CO)[C@@H](O)[C@H](N)[C@H]3O)[C@H](N)C[C@@H]2N)[C@H](N)C[C@@H]1O [Tobramycin, tobramycin] | 0.5 µg/mL (≈ 1.07 µM) | 0.5 µg/mL (≈ 1.07 µM) | 0.5 µg/mL (≈ 1.07 µM) | 0.5 µg/mL (≈ 1.07 µM) | 1 µg/mL (≈ 2.14 µM) | 1 µg/mL (≈ 2.14 µM) | susceptible | susceptible | Susceptibility of Mu890 (colour change of blood) (E. coli strain Mu890 [2]): sensitive |
| Cc1nnc(SCC2=C(C(=O)O)N3C(=O)[C@@H](NC(=O)Cn4cnnn4)[C@H]3SC2)s1 [cefazolin] |  |  |  |  |  |  |  |  | Susceptibility of PA46 (standard BMD method) [4]: resistant |
| gentamicin |  |  |  |  |  |  |  |  | MIC (4 hour) ([1]; real-time Bayesian updated MIC, 4 hour): 0.5 µg/mL; MIC (6 hour) ([1]; real-time Bayesian updated MIC, 6 hour): 0.5 µg/mL; MIC (8 hour) ([1]; real-time Bayesian updated MIC, 8 hour): 0.5 µg/mL; MIC (10 hour) ([1]; real-time Bayesian updated MIC, 10 hour): 1 µg/mL; MIC (12 hour) ([1]; real-time Bayesian updated MIC, 12 hour): 1 µg/mL; MIC (16 hour) ([1]; real-time Bayesian updated MIC, 16 hour): 1 µg/mL |
